Results taken from EP0306826A1, “N-(substituted alkylidene)fused bicycloalkylidene and hetero-alkylidene quinolinamines, a process for their preparation and their use as medicaments” (HOECHST-ROUSSEL PHARMACEUTICALS INCORPORATED, priority 1987, dated 1989).

What was measured:
acetylcholinesterase = acetylcholinesterase (Homo sapiens, UniProt P22303); assay: Acetylcholinesterase Inhibition Assay (photometric method of Ellman et al.); assay type: biochemical
mice = assay: Dark Avoidance Assay (reversal of scopolamine induced memory deficit); assay type: in vivo
Experimental: In this assay mice are tested for their ability to remember an unpleasant stimulus for a period of 24 hours. A mouse is placed in a chamber that contains a dark compartment; a strong incandescent light drives it to the dark compartment, where an electric shock is administered through metal plates on the floor. The animal is removed from the testing apparatus and tested again, 24 hours later, for the ability to remember the electric shock.
If scopolamine, an anticholinergic that is known to cause memory impairment, is administered before an animal's initial exposure to the test chamber, the animal re-enters the dark compartment shortly after being placed in the test chamber 24 hours later. This effect of scopolamine is blocked by an active test compound, resulting in a greater interval before re-entry into the dark compartment.
The test results are expressed as the percent of a group of animals in which the effect of scopolamine is blocked, as manifested by an increased interval between being placed in the test chamber and re-entering the dark compartment.

acetylcholinesterase, sequence (P22303 32-614): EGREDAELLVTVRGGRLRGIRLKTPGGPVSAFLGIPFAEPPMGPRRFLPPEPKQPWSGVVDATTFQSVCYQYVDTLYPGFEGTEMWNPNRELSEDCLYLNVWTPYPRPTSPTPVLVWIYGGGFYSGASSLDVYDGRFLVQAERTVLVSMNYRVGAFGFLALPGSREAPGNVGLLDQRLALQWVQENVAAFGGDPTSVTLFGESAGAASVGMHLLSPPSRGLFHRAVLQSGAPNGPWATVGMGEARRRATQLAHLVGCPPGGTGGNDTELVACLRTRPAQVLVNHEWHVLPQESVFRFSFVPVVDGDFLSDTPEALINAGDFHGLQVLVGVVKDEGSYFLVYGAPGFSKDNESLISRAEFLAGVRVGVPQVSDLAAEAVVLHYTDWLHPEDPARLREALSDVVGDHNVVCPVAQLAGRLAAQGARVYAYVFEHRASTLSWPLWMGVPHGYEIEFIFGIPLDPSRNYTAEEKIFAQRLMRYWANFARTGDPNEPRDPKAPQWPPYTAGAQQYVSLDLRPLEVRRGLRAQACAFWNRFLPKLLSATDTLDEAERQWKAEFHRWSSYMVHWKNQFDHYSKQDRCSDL

Compound	IC50 (acetylcholinesterase) [µM]	% of Animals with Scopolamine Induced Memory Deficit Reversal (mice; mice, dose 0.31 mg/kg of body weight, s.c, retest 24 hours later) [%]	% of Animals with Scopolamine Induced Memory Deficit Reversal (mice; mouse, in vivo, 0.31 mg/kg) [%]
C(=Nc1c2c(nc3ccccc13)C1CCC2C1)c1ccccc1 (stereo not shown) [1,4-Methano-N-(phenylmethylene)-1,2,3,4-tetrahydro-9-acridinamine]	12	27	
FC(F)(F)c1ccc2c(N=Cc3ccccc3)c3c(nc2c1)C1CCC3C1 (stereo not shown) [1,4-Methano-N-(phenylmethylene)-6-trifluoromethyl-1,2,3,4-tetrahydro-9-acridinamine]	22		
CNC(=O)Oc1ccc2c(c1)[C@]1(C)CCN(C)[C@@H]1N2C [Physostigmine, reference compound]			20
